Values joined by “and” are separate entries in the source; they are usually repeats but may differ in a detail not shown here. Equal values may be shown once. Read-outs that look alike come from different tables or passages of the source.
How the values were obtained:
[1] = stated for comparison; cited from earlier work
[2] = CMC, iodine method of Ross and Olivier; type: physicochemical; conditions: iodine spectrophotometric assay
Method: (§1) The CMC of HECAMEG was colorimetrically determined with the iodine method of Ross and Olivier and the Coomassie blue G method of Rosenthal and Koussaie and spectrofluorometrically with the technique of Vendittis et al. In the latter case, excitation was performed at 370 nm and emission recorded at 490 nm.
(§2) The CMC of the detergent was estimated by three distinct spectrophotometric methods of OG (n-octylα-D glucopyranoside) was used for comparison. The iodine spectrophotometric assay indicated a CMC of 17 mM while values of 14.5 and 15 mM were obtained with Coomassie blue G, and 19.5 mM was obtained by spectrofluorometry at 4° and 20° C. The second method was not reliable with OG, while the two other methods indicated for this surfactant, as expected, a CMC of 25 mM.

[3] = CMC, spectrofluorometry (technique of Vendittis et al.); type: physicochemical; conditions: for CMC: spectrofluorometry at 4° and 20° C.
Method: as §1, §2

[4] = system: P. multocida succinate dehydrogenase; test: Enzyme assay, succinate dehydrogenase; type: biochemical, Pasteurella multocida; conditions: for Km: read-out: Km ± SD
Method: (§3) P. multocida succinate dehydrogenase was assayed as described by Osborn et al in […] Na phosphate buffer (pH 7.4) containing 10 mM KCN, Na succinate (concentration range: 0.25 to 25 mM), 30 ug of thiazolyl blue, and 10 μg of phenazine methosulfate per milliliter. The samples contained 25, 50, or 100 μg of plasma membrane protein per milliliter and the absorbance at 550 nm was recorded for 10 min at 25° C.P. multocida NADH oxidase was assayed in 50 mM Tris-HCl buffer (pH 8.0) containing 0.2 mM dithiothreitol and 0.12 mM NADH. The samples contained 50,75, or 100 μg of plasma membrane protein per milliliter and the absorbance at 340 nm was recorded as above. The activity of the soluble form of Escherichia coli β-lactamase was measured by using Nitrocefin as substrate and by monitoring the rate of increase in the absorbance at 488 nm for 3 min at 25° C. One milliliter of 20 mM Na phosphate buffer (pH 7.4) contained Nitrocefin (concentration range: 5 to 20 uM) and 0.76 ug (i.e., 2×10^-3 units) of β-lactamase.
(§4) The four enzyme activities were measured in the absence of surfactants and in the presence of 3 or 30 mM HECAMEG. Controls were also performed with 35 mM SDS. Km and V max were determined from Lineweaver-Burk plots, each point being the average of three estimations.

[5] = target: T1, spiralin, the main protein of the S. melliferum membrane (Spiroplasma melliferum, UniProt P21625)
T1 construct: Spiroplasma melliferum B88 was cultivated and membranes were purified as described; endogenous in cells; host or cells: Spiroplasma melliferum B88, purified membranes
Method: Since the membrane of melliferum has a complex protein composition, the protein extracted by HECAMEG was analyzed by SDS PAGE. Separation of polypeptides was performed in 100×100×4 mm gels in 40 mM Tris-20 mM Na acetate buffer (pH 7.4) containing 2 mM EDTA and 0.1% SDS. The upper gel contained 4.83% acrylamide and 0.17% bisacrylamide while the lower separating gel contained 7.72% acrylamide and 0.28% bisacrylamide. The samples contained 2% SDS and 0.12 M 2 mercaptoethanol and were heated at 60° C. for 5 min prior to electrophoresis. Bromphenol blue was used as the tracking dye. Protein bands were stained with Coomassie blue R-250 in an acetic acid/methanol/water mixture (1/4/5,v/v). […] Optimal selectivity was obtained with surfactant concentration in the 60 to 65 mM range.

[6] = target: T2, Bovine milk lactoperoxidase (Bos taurus, UniProt P80025); test: Enzyme assay, lactoperoxidase (o-dianisidine substrate); type: biochemical
T2 construct: from tissue; host or cells: bovine milk
Method: Bovine milk lactoperoxidase was assayed according to George except that o-dianisidine was used as the substrate instead of gaiacol. One milliliter of 20 mM Na phosphate buffer (pH 7.4) contained […] (concentration range: 0.06 to 0.9 mM) 1 mM o-dianisidine, and 25×10^-3 μg (i.e., 1.15×10^-3 units) of lactoper oxidase. The absorbance at 435 nm was recorded as for β-lactamase.
as §4

[7] = system: Escherichia coli β-lactamase; test: Enzyme assay, β-lactamase (Nitrocefin substrate); type: biochemical; conditions: for Km: read-out: Km ± SD
Method: as §3, §4

[8] = CMC, Coomassie blue G method of Rosenthal and Koussaie; type: physicochemical
Method: as §1, §2

bacteriorhodopsin = target: T3, bacteriorhodopsin (Halobacterium salinarum, UniProt P02945); test: Absorbance spectrum of bacteriorhodopsin; design: species or system H. halobium; conditions: native 558 nm
T3 construct: The untrated (native) purple membrane of H. halobium; endogenous in cells; host or cells: Halobacterium halobium R1, purified purple membrane
T3 sequence (P02945 14-262): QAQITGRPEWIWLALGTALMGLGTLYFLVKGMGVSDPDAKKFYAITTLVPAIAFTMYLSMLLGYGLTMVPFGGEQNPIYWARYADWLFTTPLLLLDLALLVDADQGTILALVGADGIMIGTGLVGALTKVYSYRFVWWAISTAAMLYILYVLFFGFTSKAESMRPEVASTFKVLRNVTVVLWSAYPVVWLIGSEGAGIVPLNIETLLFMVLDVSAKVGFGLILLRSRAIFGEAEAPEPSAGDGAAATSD
Method: Absorbance of dark-adapted bacteriorhodopsin was recorded between 350 and 700 nm. […] When the membrane was solubilized with 1% SDS, leading to the extensive denaturation of bacteriorhodopsin, the absorbance at 558 nm was lost to the benefit of a new maximum at 390 nm, corresponding to free retinal dissolved in SDS. These two spectra were thus representative, respectively, of the native and denatured forms of bacteriorhodopsin. Upon extraction with HECAMEG, the absorption spectrum of the protein was similar to that of the native state protein with, however, a slight blue shift in the absorption maximum (λmax=550 nm). Some absorption was also recorded at 390 nm, but it was much lower than that in SDS, even when HECAMEG was used at concentrations up to 0.1 M. Because of the scatering of light by membrane particles, the 390-nm peak could not be observed in untreated samples.

[9] = target: T4, bacteriorhodopsin from the purple membrane of H. halobium (Halobacterium salinarum, UniProt P02945); test: Membrane protein extraction with detergents, purple membrane
T4 construct: The untrated (native) purple membrane of H. halobium; endogenous in cells; host or cells: Halobacterium halobium R1, purified purple membrane
T4 sequence (P02945 14-262): T3 sequence (P02945 14-262)
Description: Spiroplasma melliferum B88 was cultivated and membranes were purified as described. The purple membrane of Halobium R1 was purified according to Oesterhelt and Stoeckenius (22). Pasteurella multocida was cultivated in liquid medium containing per liter 20 g of Tryptose (Difco), 1 g of glucose, 5 g of NaCl, and 2,5 g of yeast extract (Difco), pH 7.4. The cells were harvested by centrifugation and disrupted with a French press. Plasma membranes were isolated according the technique of Osborn and Munson.
In order to extract membrane proteins, 200 μl of a membrane suspension in 0.1 M Na phosphate buffer (pH 7.4) was mixed with 200 μl of detergent dissolved in water. After 90 min at room temperature, the mixture was centrifuged at 260,000 g for 15 min at 20° C. (Beckman TL-100 ultracentrifuge, TL A 100.1 rotor). The supernatant was recovered for further analysis, while the pellet was dispersed in 400 μl of 2% SDS in 50 mM Tris-HCl buffer (pH 8.0). After 60 min at room temperature, the mixture was centrifuged as above and the supernatant recovered for analysis.
It was possible to extract up to 75% of bacteriorhodopsin from the purple membrane and 40% of protein from the spiroplasmal membrane with 75 mM HECAMEG. This corresponds respectively to ratios of 9 and 26 ug of protein/μmol of detergent. The efficacy of the extraction was not improved by increasing the detergent concentration. […]

[10] = Solubility in water, usual buffers and organic solvents; type: physicochemical
[11] = Detergent dialysis (Lipoprep apparatus); type: physicochemical; conditions: 30 mM in 50 mM Na phosphate pH 7.4, 5 kDa cutoff membranes, 25° C.
Method: Dialysis experiments with HECAMEG were performed with the Lipoprep apparatus using a three-compartment Teflon cell with two cellulose dialysis membranes (molecular mass cutoff 5 kDa). The central compartment was filled with 8 ml of 30 mM HECAMEG in 50 mM Na phosphate buffer, pH 7.4. The same buffer, but without detergent circulated through the two side compartment for 24 h at 25° C. Dialysis speed was estimated by measuring HECAMEG concentration within the central cell.
The dialyzability of HECAMEG was estimated by the use of the Lipoprep dialysis system under conditions corresponding to those used for the preparation of liposomes. […] Indeed, the concentration of HECAMEG in the central compartment of the cell dropped by 50% upon 3 h of dialysis and the surfactant was no longer detected after about 18 h.

[12] = Stability of HECAMEG solutions; type: physicochemical; conditions: 4° C.
[13] = system: P. multocida NADH oxidase; test: Enzyme assay, NADH oxidase; type: biochemical, Pasteurella multocida; conditions: for Km: read-out: Km ± SD
Method: as §3, §4

spiralin = target: T5, spiralin (Spiroplasma melliferum, UniProt P21625); conditions: crossed immunoelectrophoresis, rabbit antibodies against S. melliferum membrane
T5 construct: Spiroplasma melliferum B88 was cultivated and membranes were purified as described; endogenous in cells; host or cells: Spiroplasma melliferum B88, purified membranes
Method: Antibodies directed against the S. melliferum membrane were prepared in rabbits as described. The hyperimmune sera were filtered through 0.45-μm-pore membranes and stored at -25° C. Crossed immunoelectrophoresis was performed according to the method of Laurell in 1% agarose gel in veronal buffer, pH 8.6 (I=0.03). After unprecipitaded proteins where eluted and gels were dried, immunoprecipitates were stained with Coomassie blue R-250.

T1 sequence (P21625 24-242): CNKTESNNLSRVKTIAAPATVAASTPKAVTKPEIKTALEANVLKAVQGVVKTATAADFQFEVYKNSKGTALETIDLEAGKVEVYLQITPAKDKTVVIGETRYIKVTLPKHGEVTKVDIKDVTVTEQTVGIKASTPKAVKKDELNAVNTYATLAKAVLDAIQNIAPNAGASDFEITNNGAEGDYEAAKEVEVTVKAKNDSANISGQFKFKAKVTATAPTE
T5 sequence (P21625 24-242): as above

CCCCCCCCO[C@H]1O[C@H](CO)[C@@H](O)[C@H](O)[C@H]1O [OG, n-octylα-D glucopyranoside, reference compound]
CMC of comparison surfactants [1]: 25 mM
CMC [2]: 25 mM
CMC [3]: 25 mM

CCCCCCCNC(=O)OC[C@H]1O[C@H](OC)[C@H](O)[C@@H](O)[C@@H]1O [HECAMEG, 6-0 (N-Heptylcarbamoyl) methyl α-D-glucopyranoside]
inhibition of enzyme by the surfactant [4]: not inhibited
Vmax ± SD ([4]; HECAMEG 0.1%, 3 mM): 163 ± 41 µmol/min
Km ([4]; HECAMEG 0.1%, 3 mM): 947 ± 52 µM
Vmax ± SD ([4]; HECAMEG 1%, 30 mM): 357 µmol/min and 357 ± 50 µmol/min
Km ([4]; HECAMEG 1%, 30 mM): 901 ± 65 µM
effect on Km and Vmax below the CMC ([4]; below the CMC): neither Km nor Vmax was significantly modified
polypeptides extracted (including spiralin) of 28 detected in the membrane ([5]; 60 to 65 mM surfactant): 12
solubilization of the fibril protein ([5]; S. melliferum membrane): not able to solubilize the fibril protein
change of Vmax ([6]; 30 mM surfactant): increased about threefold
Vmax ± SD ([6]; HECAMEG 0.1%, 3 mM): (609 ± 30) × 10^-3 μmol/min
Vmax ± SD ([6]; HECAMEG 1%, 30 mM): (1238 ± 4) × 10^-3 μmol/min
enzyme activity above the CMC ([6]; above the CMC): increased
effect on enzyme below the CMC ([6]; below the CMC): apparent activation
change of Vmax ([7]; 30 mM surfactant): decreased threefold
Vmax ± SD ([7]; HECAMEG 0.1%, 3 mM): 143 ± 16.5 µmol/min
Km ([7]; HECAMEG 0.1%, 3 mM): 62 ± 10 µM
Vmax ± SD ([7]; HECAMEG 1%, 30 mM): 30.5 ± 0.4 µmol/min
Km ([7]; HECAMEG 1%, 30 mM): 18.1 ± 0.6 µM
enzyme activity above the CMC ([7]; above the CMC): decreased
effect on enzyme below the CMC ([7]; below the CMC): apparent activation
CMC [8]: 14.5 mM and 15 mM
absorption maximum (λmax) of bacteriorhodopsin (bacteriorhodopsin; upon extraction with HECAMEG): 550 nm
CMC [2]: 17 mM
ratio protein extracted per detergent ([9]; 75 mM HECAMEG, purple membrane): 9 ug of protein/μmol of detergent
membrane protein extraction below the CMC ([9]; concentrations below the CMC): inefficient
solubility in water ([10]; even at 0° C.): high solubility
solubility ([10]; usual buffers, in currant buffers, at 4° C., read-out: solubility): > 60 mg/mL
solubility ([10]; water, Tris-HCl and phosphate buffers, even at 0° C., read-out: solubility in water and usual buffers): ≥ 200000 µM
solubility in water and organic solvents ([10]; water, alcohols, methylene chloride, tetrahydrofuranne, DMSO): very soluble
dialysis time after which surfactant was no longer detected [11]: about 18 h
drop of concentration in the central compartment ([11]; upon 3 h of dialysis): 50%
stability of solutions [12]: stable for several weeks
CMC [3]: 19.5 mM
critical micellar concentration (CMC) ([3]; summary value, method not named at the place): 19.5 mM and 6.5 g/l
inhibition of enzyme by the surfactant [13]: not inhibited
Vmax ± SD ([13]; HECAMEG 0.1%, 3 mM): 4.0 ± 0.5 µmol/min
Km ([13]; HECAMEG 0.1%, 3 mM): 12.5 ± 1.2 µM
Vmax ± SD ([13]; HECAMEG 1%, 30 mM): 10.3 ± 1.2 µmol/min and 10.3 µmol/min
Km ([13]; HECAMEG 1%, 30 mM): 3.3 ± 0.6 µM
change of affinity of the enzyme for its substrate ([13]; above the CMC (30 mM)): increased fourfold
effect on Km and Vmax below the CMC ([13]; below the CMC): neither Km nor Vmax was significantly modified
antigenicity of spiralin after solubilization (spiralin): remained highly antigenic

CCCCCCCCCCCCOS(=O)(=O)[O-].[Na+] [SDS, sodium dodecyl sulfate, reference compound]
enzyme activity upon treatment with SDS ([4]; 35 mM SDS): completely inhibited
enzyme activity with SDS ([6]; 35 mM SDS): fully inhibited
enzyme activity with SDS ([7]; 35 mM SDS): fully inhibited
absorption maximum of bacteriorhodopsin preparation (bacteriorhodopsin; membrane solubilized with 1% SDS): 390 nm
enzyme activity upon treatment with SDS ([13]; 35 mM SDS): completely inhibited

Source: patent US5223411A, “Nonionic surfactants having a carbamoyl group and process for treatment of a proteins containing medium using the same” (Centre National de la Recherche Scientifique (CNRS), priority 1990, dated 1993)
